{
  "source": "patent US11332620B2",
  "about": "“Solution comprising a dye” (NOURYON CHEMICALS INTERNATIONAL B.V., priority 2018, dated 2022)",
  "test": "Dissolution of dye powder in CP/DMSO 80/20 mixture",
  "assay_type": "physicochemical",
  "details": "stirred 24 hours at room temperature",
  "data": [
    {"smiles": "CCN(CCO)c1ccc(N=Nc2ccc([N+](=O)[O-])cc2)cc1", "note": "[Disperse Red 1, N-Ethyl-N-(2-hydroxyethyl)-4-(4-nitrophenylazo)aniline]", "values": [
      {"measurement": "Dissolution in CP/DMSO 80/20 mixture", "setting": "2.5 gram powder in 22.5 grams CP/DMSO 80/20, followed by 4 hours at 40° C.", "result": "completely dissolved"}
    ]},
    {"smiles": "CC(=O)OCCN(CCC#N)c1ccc(N=Nc2nc3ccc([N+](=O)[O-])cc3s2)cc1", "note": "[Disperse Red 177, 2-((2-cyanoethyl)(4-((6-nitrobenzothiazol-2-yl)azo)phenyl)amino)ethyl acetate]", "values": [
      {"measurement": "Dissolution in CP/DMSO 80/20 mixture", "setting": "2.5 grams powder in 22.5 grams CP/DMSO 80/20", "result": "completely dissolved"}
    ]}
  ]
}
